Measured values reported in US20220184073A1, “USE OF A H3R INVERSE AGONIST FOR THE TREATMENT OF SHIFT WORK DISORDER” (Novartis AG, priority 2017, published 2022).
“Also recorded” adds a separate entry of the source.

Tests used:
[1] = system: tele-methylhistamine in CSF; assay: tele-methylhistamine (tMeHA) in CSF after single oral dose in healthy volunteers (LC-MS); type: in vivo, human; details: for model adjusted geometric mean ratio to baseline of tele-methylhistamine in CSF: 100 mg single oral dose (free form); for Comparison of treatment vs placebo, Estimate (geometric ratio), tele-methylhistamine in CSF: 100 mg single oral dose vs placebo
Experimental: (§1) A randomized, double-blind, placebo-controlled, parallel group, exploratory study of single oral doses of Compound (I) (free form) was conducted in healthy volunteers (HVs) to investigate the pharmacodynamic effect of Compound (I) on the release of neurotransmitters in the brain. A total of 16 subjects were enrolled into the study, which was part of a first-in-human (FIH) study.
(§2) Subjects were randomized in a 1:1 ratio to receive either a single dose of Compound (I) or placebo.
(§3) On study Day 1 in the afternoon (approximately at 16:00), the HVs underwent lumbar puncture and a spinal catheter was placed for repeated cerebrospinal fluid (CSF) sampling. The spinal catheter was placed under strict surgical aseptic conditions, as per best practice standards, by a board certified anesthesiologist. Two CSF samples were collected before administration of the study drug (Compound (I) or placebo). Study drug was administered in the evening (approximately at 18:00). Thereafter, 10 more CSF samples were collected during 16 hrs following drug administration. The exact timing of sampling (0.5, 1, 1.5, 2, 3, 4, 6, 8, 12 and 16 hr post dose). During the same period, blood samples were also collected for pharmacokinetic (PK) analysis. The subjects remained at bed rest during the CSF sampling procedure and for about 24 hr afterwards. The following safety precautions were taken: (1) proper hydration of the subjects was ensured; (2) the catheter insertion site was assessed on a regular basis for early signs of local infection or CSF leakage; (3) prophylactic interventions/treatments to reduce the risk of venous thrombosis was considered by the Investigator.
(§4) The dose of Compound (I) (free form) administered to the subjects was 100 mg. Safety, tolerability and PK assessments were made up to 72 hr post dose. Subjects were allowed to leave the study center on Study Day 4 at the discretion of the Investigator, if there were no prohibitive safety findings. The subjects were asked to return to the study site for the study completion evaluation. Safety assessments included physical examinations, electrocardiograms (ECGs), vital signs, standard clinical laboratory evaluations (hematology, blood chemistry, and urinalysis), adverse events (AEs) and serious adverse events (SAEs) monitoring.
(§5) Biomarkers related to pharmacodynamic (PD) effect of Compound (I) (e.g. histamine [HA], tele-methylhistamine [tMeHA]) were measured in the CSF using LC-MS method.
LC-MS conditions for tele-methyl-histamine (%=percent by volume): Acquity Binary Solvent Manager/Applied Biosystems API 5000; Mobile Phase A: acetonitrile, B: 10 mM ammonium formate pH9; Gradient: 15%A for 0.25 min, increase to 25%A within 4.75 min, increase to 90%A within 0.10 min, 90%A for 0.50 min, back to 15%A within 0.10 min, 15%A for 0.60 min; Run time: 6.3 min; Flow rate: 0.65 mL/min; Analytical column: Acquity BEH C18, 150×2.1 mm, 1.7 μm; Temperature: 70° C. The desired compound tele-methyl-histamine LC-MS: Rt=4.66 min, m/z 260 (M+H)^+
Compound (I) can induce histamine release in a subject and thereby promote wakefulness. The tMeHA is the direct breakdown product of HA and can thus be used as a marker for HA release. In animals, the half-life of HA is about 20 minutes. Therefore HA is not an ideal mechanistic PD marker for Compound (I). due to its short half-life. […] Due to its slower breakdown, tMeHA was expected to be a more useful PD marker of Compound (I) activity than HA itself.
The effect of Compound (I) on CSF biomarkers was assessed using mixed models for repeated measures (MMRM). These parameters were log transformed and analyzed using a model including treatment and timepoint, the treatment*timepoint interaction term, and log transformed baseline as fixed effects. An unstructured residual covariance matrix within subjects was considered as desirable, but an alternative covariance structure (autoregressive) was used due to a lack of fit. […]

histamine in CSF = assay: Histamine (HA) in CSF after single oral dose in healthy volunteers (LC-MS); type: in vivo, human; details: for model adjusted geometric mean ratio to baseline of histamine in CSF: 100 mg single oral dose (free form); for Comparison of treatment vs placebo, Estimate (geometric ratio), histamine in CSF: 100 mg single oral dose vs placebo
Experimental: as §1, §2, §3, §4, §5
LC-MS conditions for histamine (%=percent by volume): Acquity Binary Solvent Manager/Applied Biosystems API 5000; Mobile Phase A: acetonitrile, B: 10 mM ammonium formate pH3; Gradient: 10%A for 0.25 min, increase to 15%A within 0.25 min, increase to 25%A within 4 min, increase to 90%A within 0.10 min, 90%A for 0.9 min, back to 10%A within 0.10 min, 10%A for 2.40 min; Run time: 8 min; Flow rate: 0.35 mL/min; Analytical column: Acquity BEH C18, 150×2.1 mm, 1.7 μm; Temperature: 30° C. The desired compound histamine LC-MS: Rt=3.85 min, m/z 246 (M+H)^+
The effect of Compound (I) on CSF biomarkers was assessed using mixed models for repeated measures (MMRM). These parameters were log transformed and analyzed using a model including treatment and timepoint, the treatment*timepoint interaction term, and log transformed baseline as fixed effects. An unstructured residual covariance matrix within subjects was considered as desirable, but an alternative covariance structure (autoregressive) was used due to a lack of fit. The mean difference versus placebo (and its 90% CI) was calculated at each dose level. These were back-transformed to give a geometric ratio (and its 90% CI) between each dose and placebo.
Subjects: The study population comprised of male and female (of non-child bearing potential) healthy volunteers (HVs) 18-55 years of age. […] BMI=Body weight (kg)/[Height (m)]2. Subjects were able to communicate well with the Investigator, to understand and comply with the requirements of the study. […]

[2] = SWD patients; N. Engl. J. Med., 2005, 353, 476-486; cited from earlier work
[3] = healthy volunteers, 0.5 hr post-dose
[4] = healthy volunteers, 1.0 hr post-dose
[5] = healthy volunteers, 1.5 hr post-dose
[6] = healthy volunteers, 2.0 hr post-dose
[7] = healthy volunteers, 3.0 hr post-dose
[8] = healthy volunteers, 4.0 hr post-dose
[9] = healthy volunteers, 6.0 hr post-dose
[10] = healthy volunteers, 8.0 hr post-dose
[11] = healthy volunteers, 12.0 hr post-dose
[12] = healthy volunteers, 16.0 hr post-dose

## Cn1nc(N2CCC(OC(=O)N3CCN(C4CCC4)CC3)CC2)ccc1=O [Compound (I), 1-(1-methyl-6-oxo-1,6-dihydropyridazin-3-yl)piperidin-4-yl 4-cyclobutylpiperazine-1-carboxylate]
[1]; at 1.5 hrs post dose and at all subsequent sampling points
  between group difference in CSF tMeHA (statistical significance): statistically significant
[1]; healthy volunteers, 100 mg single oral dose
  time for which mean CSF tMeHA level was increased compared to baseline: about 10 hrs
[1]; [3]
  model adjusted geometric mean ratio to baseline of tele-methylhistamine in CSF: 1.01
  Comparison of treatment vs placebo, Estimate (geometric ratio), tele-methylhistamine in CSF: 1.02
[1]; [4]
  model adjusted geometric mean ratio to baseline of tele-methylhistamine in CSF: 1.17
  Comparison of treatment vs placebo, Estimate (geometric ratio), tele-methylhistamine in CSF: 1.10
[1]; [5]
  model adjusted geometric mean ratio to baseline of tele-methylhistamine in CSF: 1.30
  Comparison of treatment vs placebo, Estimate (geometric ratio), tele-methylhistamine in CSF: 1.39
[1]; [6]
  model adjusted geometric mean ratio to baseline of tele-methylhistamine in CSF: 1.73
  Comparison of treatment vs placebo, Estimate (geometric ratio), tele-methylhistamine in CSF: 1.77
[1]; [7]
  model adjusted geometric mean ratio to baseline of tele-methylhistamine in CSF: 1.64
  Comparison of treatment vs placebo, Estimate (geometric ratio), tele-methylhistamine in CSF: 1.88
[1]; [8]
  model adjusted geometric mean ratio to baseline of tele-methylhistamine in CSF: 1.21
  Comparison of treatment vs placebo, Estimate (geometric ratio), tele-methylhistamine in CSF: 1.63
[1]; [9]
  model adjusted geometric mean ratio to baseline of tele-methylhistamine in CSF: 1.59
  Comparison of treatment vs placebo, Estimate (geometric ratio), tele-methylhistamine in CSF: 1.85
[1]; [10]
  model adjusted geometric mean ratio to baseline of tele-methylhistamine in CSF: 1.20
  Comparison of treatment vs placebo, Estimate (geometric ratio), tele-methylhistamine in CSF: 2.14
[1]; [11]
  model adjusted geometric mean ratio to baseline of tele-methylhistamine in CSF: 0.79
  Comparison of treatment vs placebo, Estimate (geometric ratio), tele-methylhistamine in CSF: 2.45
[1]; [12]
  model adjusted geometric mean ratio to baseline of tele-methylhistamine in CSF: 1.04
  Comparison of treatment vs placebo, Estimate (geometric ratio), tele-methylhistamine in CSF: 1.57
[1]; healthy volunteers, 100 mg single oral dose, entire observation period
  mean tMeHA level in CSF / ratio to baseline, treatment vs placebo (in words): higher; also recorded: robust increase
Histamine in CSF; 0.5 hr post-dose
  model adjusted geometric mean ratio to baseline of histamine in CSF: 1.27
  Comparison of treatment vs placebo, Estimate (geometric ratio), histamine in CSF: 1.16
Histamine in CSF; 1.0 hr post-dose
  model adjusted geometric mean ratio to baseline of histamine in CSF: 1.09
  Comparison of treatment vs placebo, Estimate (geometric ratio), histamine in CSF: 0.96
Histamine in CSF; 1.5 hr post-dose
  model adjusted geometric mean ratio to baseline of histamine in CSF: 0.95
  Comparison of treatment vs placebo, Estimate (geometric ratio), histamine in CSF: 0.97
Histamine in CSF; 2.0 hr post-dose
  model adjusted geometric mean ratio to baseline of histamine in CSF: 1.02
  Comparison of treatment vs placebo, Estimate (geometric ratio), histamine in CSF: 0.99
Histamine in CSF; 3.0 hr post-dose
  model adjusted geometric mean ratio to baseline of histamine in CSF: 1.01
  Comparison of treatment vs placebo, Estimate (geometric ratio), histamine in CSF: 1.15
Histamine in CSF; 4.0 hr post-dose
  model adjusted geometric mean ratio to baseline of histamine in CSF: 0.73
  Comparison of treatment vs placebo, Estimate (geometric ratio), histamine in CSF: 0.79
Histamine in CSF; 6.0 hr post-dose
  model adjusted geometric mean ratio to baseline of histamine in CSF: 0.63
  Comparison of treatment vs placebo, Estimate (geometric ratio), histamine in CSF: 0.64
Histamine in CSF; 8.0 hr post-dose
  model adjusted geometric mean ratio to baseline of histamine in CSF: 0.83
  Comparison of treatment vs placebo, Estimate (geometric ratio), histamine in CSF: 1.14
Histamine in CSF; 12.0 hr post-dose
  model adjusted geometric mean ratio to baseline of histamine in CSF: 0.84
  Comparison of treatment vs placebo, Estimate (geometric ratio), histamine in CSF: 1.14
Histamine in CSF; 16.0 hr post-dose
  model adjusted geometric mean ratio to baseline of histamine in CSF: 0.92
  Comparison of treatment vs placebo, Estimate (geometric ratio), histamine in CSF: 0.82
Histamine in CSF; free form, 100 mg, single dose, 16 hrs observation
  mean CSF HA levels, treatment vs placebo (in words): No clear trend of a difference; also recorded: No treatment response was detected

## NC(=O)C[S+]([O-])C(c1ccccc1)c1ccccc1 (stereo not drawn) [modafinil, 2-(benzhydrylsulfinyl)acetamide]
[2]
  mean sleep latency (MSLT): modest but statistically significant improvement
